Key:
[1] = DPPH radical scavenging activity; conditions: Trolox equivalent; compounds and Trolox 100 µM
Text: (§1) DPPH is a stable chromogen radical, which is widely used to assess the antioxidant activity of biological objects, in particular when searching for potential therapeutic agents used to maintain the redox balance in the body and treat pathologies associated with the action of free radicals. In turn, the oxygen radical absorbance capacity (ORAC) analysis is based on the removal by potential antioxidants of peroxyl radicals generated by AAPH (2,2’-axobis-2-methyl-propanimidamide, dihydrochloride), preventing the degradation of the fluorescein probe.
The measurement of the antiradical activity of synthesized hydroxamic acids was carried out using the method described in [150]. The studied compounds were introduced into the wells of a 96-well black tablet (the final concentration was 100 microns), after which a freshly prepared solution of 2,2-diphenyl-1-picrylhydrazyl (Sigma Aldrich, St. Louis, Missouri, USA) was added. After the incubation time had elapsed, the DPPH radical-scavenging activity was measured using a multifunctional Cytation™3 tablet analyzer (BioTek Instruments, Inc., Winooski, VT, USA) at λ = 517 nm by the difference in the reduction of the DPPH radical peak between control samples containing an equivalent volume of solvent and samples with the substances under study.

[2] = Oxygen radical absorbance capacity (ORAC); conditions: Trolox equivalent; compounds and Trolox 100 µM, AAPH 12 mM
Text: as §1
The analysis of the absorption capacity of oxygen radicals was performed as described in [151], with some modifications. Trolox (Sigma Aldrich, St. Louis, MI, USA) was used as a standard antioxidant. The studied compounds were introduced into the holes of a 96-hole black tablet with a transparent bottom with Trolox (25 µL; the final concentration was 100 µM) and fluorescein (150 µL; the final concentration was 80 nM, Sigma Aldrich, St. Louis, MI, USA). The resulting mixture was shaken and incubated for 30 min at 37 °C. After a 30-min incubation period, a solution of 2,2’-azobis (2-amidinopropane) dihydrochloride (AAPH) (25 µL; final concentration of 12 mM, Sigma Aldrich, St. Louis, MI, USA) was quickly introduced into all wells of the tablet. The tablet was immediately placed in a multifunctional tablet analyzer Cytation™ 3 (BioTek Instruments, Inc., Winooski, VT, USA). The fluorescence intensity was recorded for 300 min at λex = 480 nm, λem = 520 nm with an interval of every 5 min. In the same experiment, calibration solutions for the reference antioxidant Trolox were used to confirm the validity of the use of this method (0, 6.25, 12.5, 25, 50 and 100 µM).

[3] = biological target: T1, β-amyloid peptide 1-42 (Aβ1-42) (Homo sapiens, UniProt P05067); assay: Thioflavin T fluorescent analysis of Aβ1-42 aggregation; type: biochemical; conditions: 48 h, compounds 100 µM, Thioflavin T 10 µM, 48 h registration; read-out: prevention of the aggregation of Aβ1-42
T1 construct: the pathological form of β-amyloid peptide 1-42 (Sigma Aldrich); purchased Sigma Aldrich
Text: The aggregation process of β-amyloid peptide 1-42 (Aβ1-42), caused by hydrophobic interactions of peptide monomers and, as a consequence, the formation of the most toxic polymorphic structure-oligomeric fragments of Aβ, was detected using the fluorescent dye Thioflavin T (Figure 4a). This method is the most widely used for selective staining and the identification of amyloid aggregates, which is confirmed by a large number of works. Fluorescence analysis using Thioflavin T made it possible to monitor the aggregation process of the pathological form of β-amyloid peptide 1-42 (Sigma Aldrich, St. Louis, MI, USA). The experimental protocol was carried out similarly to that described in [58] with some modifications. The registration of changes in the fluorescence of thioflavin T (10 µM, Sigma Aldrich, St. Louis, MI, USA) was performed on a multifunctional tablet analyzer Cytation™3 (BioTek Instruments, Inc., Winooski, VT, USA) at λex = 450 nm, λem = 480 nm. The fluorescence intensity of the solution without Aβ1-42 was subtracted from the fluorescence values of solutions containing protein, due to the need to subtract the background fluorescence.

Cell viability, MTT test = type: cell-based; conditions: human, SH-SY5Y neuroblastoma cells, 24-h exposure, read-out: IC50 cytotoxic action
Procedure: The culture of human neuroblastoma cells (defined as SH-SY5Y) was cultured in DMEM with the addition of embryonic bovine serum (10%), 2 mM glutamine (DiaM, Moscow, Russia) and penicillin-streptomycin (100 U/Ml–100 µg/mL, PanEco, Moscow, Russia) in conditions of 5% CO2 in the air at 37 °C. Upon reaching 80% confluence, cells in the amount of 1 × 10^4 were placed in 96-well transparent plates and incubated under the same conditions for 24 h. After the incubation time, the cells were exposed to a 24-h exposure to various concentrations of hydroxamic acids dissolved in dimethyl sulfoxide (range from 1 to 100 µM). An equivalent volume of solvent was used as a control (final DMSO content = 1%).
Cell survival analysis was performed using MTT test. To do this, 3-(4,5-dimethylthiazol-2-yl)-2,5-diphenyltetrazolium bromide (MTT, 5 mg/mL, DiaM, Moscow, Russia) was introduced into all wells and incubated at 37 °C for 2 h to restore metabolically active cells of the yellow tetrazolium salt MTT to purple formazane crystals. The resulting formazane was then re-suspended in 200 µL DMSO per well. The optical density was recorded using a multifunctional Cytation™3 flatbed analyzer (BioTek Instruments, Inc., Winooski, VT, USA) at λ = 530 nm.

HDAC6 = biological target: T2, HDAC6 (Homo sapiens, UniProt Q9UBN7); assay: Fluorimetric measurement of HDAC6 activity (FLUOR DE LYS kit); type: biochemical; conditions: for IC50: Table 1, read-out: HDAC6-Inhibitory Effect, IC50; for ability to inhibit the enzymatic activity of HDAC6: in words
T2 construct: purchased Enzo Life Sciences
T2 sequence (Q9UBN7 1-1215): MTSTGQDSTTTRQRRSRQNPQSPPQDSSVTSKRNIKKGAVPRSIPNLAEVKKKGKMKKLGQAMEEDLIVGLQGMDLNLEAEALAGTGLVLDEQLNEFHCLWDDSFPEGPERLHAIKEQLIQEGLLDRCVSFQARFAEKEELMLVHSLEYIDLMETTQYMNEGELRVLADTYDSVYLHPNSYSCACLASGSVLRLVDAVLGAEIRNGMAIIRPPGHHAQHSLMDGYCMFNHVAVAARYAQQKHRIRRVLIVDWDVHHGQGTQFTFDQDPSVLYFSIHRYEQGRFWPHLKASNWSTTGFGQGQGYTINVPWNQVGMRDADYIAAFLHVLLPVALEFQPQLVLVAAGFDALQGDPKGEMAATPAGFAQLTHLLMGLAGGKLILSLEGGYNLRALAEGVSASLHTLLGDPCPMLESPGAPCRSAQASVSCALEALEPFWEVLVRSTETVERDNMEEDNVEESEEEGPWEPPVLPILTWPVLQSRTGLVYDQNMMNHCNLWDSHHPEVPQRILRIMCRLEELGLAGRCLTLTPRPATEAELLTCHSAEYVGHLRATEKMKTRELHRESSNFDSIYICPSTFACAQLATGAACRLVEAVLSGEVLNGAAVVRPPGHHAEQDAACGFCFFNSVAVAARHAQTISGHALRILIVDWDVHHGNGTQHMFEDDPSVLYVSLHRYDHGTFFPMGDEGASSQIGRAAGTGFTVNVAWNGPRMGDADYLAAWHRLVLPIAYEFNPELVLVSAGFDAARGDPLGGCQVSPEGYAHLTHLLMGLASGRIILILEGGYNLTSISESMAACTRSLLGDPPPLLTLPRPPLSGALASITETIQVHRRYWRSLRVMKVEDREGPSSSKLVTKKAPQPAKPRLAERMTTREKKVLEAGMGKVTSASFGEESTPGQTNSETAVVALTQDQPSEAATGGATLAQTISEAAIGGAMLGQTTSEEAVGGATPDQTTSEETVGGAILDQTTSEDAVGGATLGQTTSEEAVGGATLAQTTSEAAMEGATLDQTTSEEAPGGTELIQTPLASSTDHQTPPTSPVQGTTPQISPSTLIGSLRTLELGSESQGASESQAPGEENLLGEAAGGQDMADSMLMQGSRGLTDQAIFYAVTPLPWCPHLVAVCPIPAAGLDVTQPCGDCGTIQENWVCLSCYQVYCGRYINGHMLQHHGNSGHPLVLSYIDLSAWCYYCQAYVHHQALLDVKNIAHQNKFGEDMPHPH

T1 sequence (P05067 672-713 limits assumed): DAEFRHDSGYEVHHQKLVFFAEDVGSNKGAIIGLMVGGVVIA

Row | Compound | melting point | inhibition at 100 µM [3] | IC50 (HDAC6) | ability to inhibit the enzymatic activity of HDAC6 (HDAC6) | DPPH value (TE) [1] | ORAC value (TE) [2] | IC50 at 24 h (Cell viability, MTT test)
1 | CC1(C)[C@H]2CC[C@@H](CNC(=O)/C=C/c3ccc(C(=O)NO)cc3)[C@@H]1C2 [Compound 35c, 4-((E)-3-((((1S,2R,5S)-6,6-dimethylbicyclo[3.1.1]heptan-2-yl)methyl)amino)-3-oxoprop-1-en-1-yl)-N-hydroxybenzamide] | 139.5 to 141.4 °C | ≤ 40% | 6.9 ± 0.43 µM | – | 0.71 TE | 1.02 TE | 86.7 ± 1.45 µM
2 | CC1=CC[C@H](CC(=O)NO)C1(C)C [(-)-13, (R)-N-Hydroxy-2-(2,2,3-trimethylcyclopent-3-en-1-yl)acetamide] | – | – | > 100 µM | no significant ability | 0.39 TE | 0.93 TE | > 100 µM
3 | CC(C)c1ccc(CNC(=O)c2ccc(/C=C/C(=O)NO)cc2)cc1 [Compound 38b, (E)-4-(3-(hydroxyamino)-3-oxoprop-1-en-1-yl)-N-(4-isopropylbenzyl)benzamide] | 160.3 to 164.9 °C | 63.9% | 4.78 ± 0.04 µM | – | 0.79 TE | 1.04 TE | > 100 µM
4 | CC(CCCC(C)(C)O)CC(=O)NO (stereo not shown) [Compound 5, N,7-dihydroxy-3,7-dimethyloctanamide] | – | – | > 100 µM | no significant ability | 0.17 TE | 0.88 TE | > 100 µM
5 | CC(C)=CCCC(C)CC(=O)NO (stereo not shown) [Compound 10, N-Hydroxy-3,7-dimethyloct-6-enamide] | – | – | > 100 µM | no significant ability | 0.19 TE | 0.84 TE | > 100 µM
6 | CC1=CC[C@@H](CC(=O)NO)C1(C)C [(+)-13, (S)-N-Hydroxy-2-(2,2,3-trimethylcyclopent-3-en-1-yl)acetamide] | – | – | > 100 µM | no significant ability | 0.26 TE | 0.94 TE | > 100 µM

Now from value to compound, other results behind:

Row | melting point | inhibition at 100 µM [3] | IC50 (HDAC6) | ability to inhibit the enzymatic activity of HDAC6 (HDAC6) | Compound | DPPH value (TE) [1] | ORAC value (TE) [2] | IC50 at 24 h (Cell viability, MTT test)
7 | 113.5 to 116 °C | ≤ 40% | 0.56 ± 0.01 µM | – | C=C(C)[C@@H]1CC=C(CNC(=O)CCCCCCC(=O)NO)CC1 [Compound 30, (S)-N1-Hydroxy-N8-((4-(prop-1-en-2-yl)cyclohex-1-en-1-yl)methyl)octanediamide] | 0.25 TE | 0.87 TE | > 100 µM
8 | – | – | > 100 µM | no significant ability | CC(C)CCCC(C)CC(=O)NO (stereo not shown) [Compound 8, N-Hydroxy-3,7-dimethyloctanamide] | 0.36 TE | 0.83 TE | > 100 µM
9 | 187.4 to 189.7 °C | 59.9% | 8.23 ± 0.4 µM | – | CC(C)c1ccc(CNC(=O)/C=C/c2ccc(C(=O)NO)cc2)cc1 [Compound 35b, (E)-N-hydroxy-4-(3-((4-isopropylbenzyl)amino)-3-oxoprop-1-en-1-yl)benzamide] | 0.50 TE | 1.00 TE | > 100 µM
10 | – | – | 87.4 ± 2.33 µM | no significant ability | C=C(C)[C@@H]1CC=C(C(=O)NO)CC1 [Compound 16, (S)-N-Hydroxy-4-(prop-1-en-2-yl)cyclohex-1-enecarboxamide] | 0.23 TE | 0.87 TE | > 100 µM
11 | – | – | > 100 µM | no significant ability | CC1(C)[C@@H]2CC=C(C(=O)NO)[C@H]1C2 [(+)-19, (1S,5R)-N-Hydroxy-6,6-dimethylbicyclo [3.1.1]hept-2-ene-2-carboxamide] | 0.50 TE | 1.02 TE | > 100 µM
12 | – | – | > 100 µM | no significant ability | CC1(C)[C@H]2CC=C(C(=O)NO)[C@@H]1C2 [(-)-19, (1R,5S)-N-Hydroxy-6,6-dimethylbicyclo [3.1.1]hept-2-ene-2-carboxamide] | 0.15 TE | 0.85 TE | > 100 µM

Source: publication PMC10254045, “Elaboration of the Effective Multi-Target Therapeutic Platform for the Treatment of Alzheimer’s Disease Based on Novel Monoterpene-Derived Hydroxamic Acids” (International Journal of Molecular Sciences, 2023)
